{
  "source": "patent US8399672B2",
  "about": "“Compound having affinity for amyloid” (Nihon Medi-Physics Co., Ltd., priority 2007, dated 2013)",
  "key": {"[1]": {"target": "T1, amyloid in brain (aggregated Aβ1-42 injected into amygdaloid nucleus) (Homo sapiens, UniProt P05067)", "T1 construct": "Aβ1-42 (manufactured by Wako); purchased Wako", "T1 sequence (P05067 672-713 limits assumed)": "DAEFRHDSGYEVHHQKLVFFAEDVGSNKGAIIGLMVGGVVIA", "assay": "Confirmation of binding to amyloid in brain (in vitro autoradiogram of brain slice)", "parameters": "species or system male Wistar rat", "details": "rat brain slice immersed in sample solution (0.1 MBq/mL)", "method": "(1) Aβ1-42 (manufactured by Wako) was dissolved in phosphate buffer (pH 7.4) and shaken at 37° C. for 72 hours, to obtain a 1 mg/mL suspension of aggregated Aβ (hereinafter referred to as amyloid suspension in the present Example).\n(2) Under thiopental anesthesia, the […] of the amyloid suspension was injected into an amygdaloid nucleus on one side of a male Wistar rat (7-week old). As a control, 2.5 μL of a phosphate buffered physiological saline solution (pH 7.4) was injected into an amygdaloid nucleus on the other side of the rat. A brain was removed from the rat a day after the injection of an amyloid suspension and a phosphate buffered physiological saline solution (pH 7.4) to prepare a brain slice of 10 μm in thickness with a microtome (type: CM3050S, manufactured by LEICA).\n(3) Compound 6 in diethylether solution was diluted with a 1% bovine serum albumin/phosphate buffer (hereinafter referred to as 1% PB/BSA in the present Example) to obtain a sample solution (0.1 MBq/mL in radioactivity concentration). […]\n(5) After the completion of the image analysis using the Bio-imaging Analyzer, pathological staining with Thioflavin T was carried out to perform imaging by use of a fluorescence microscope (manufactured by NIKON Corporation; type: TE2000-U model; excitation wavelength: 400-440 nm; detection wavelength: 470 nm). […]"}, "[2]": {"system": "Salmonella typhimurium TA100", "assay": "Reverse mutation test (Ames test), strain TA100", "format": "cell-based", "method": "(§1) In order to examine gene mutagenicity of Compound 5, reverse mutation test using Salmonella typhimurium TA98 and TA100, TA1535, TA1537 and Escherichia coli WP2uvrA (hereinafter referred to as Ames test) was conducted.\n(§2) The test was conducted without addition of S9mix and with addition of S9mix. Dimethylsulfoxide (DMSO) was used as a negative control.\n(§3) As a sample solution to be added to a test plate, a 50 mg/mL solution of Compound 5 in DMSO and solutions obtained by diluting this solution with DMSO to have various concentrations were prepared. For positive control without addition of S9mix, when TA98 was used as a test strain, a solution of AF-2 (compound concentration: 1 μg/mL) in DMSO was prepared and used as a sample solution; when TA100 or WP2uvrA was used as a test strain, a solution of AF-2 (compound concentration: 0.1 μg/mL) in DMSO was prepared and used as a sample solution; when TA1535 was used as a test strain, a solution of NaN3 (compound concentration: 5 μg/mL) in water for injection was prepared and used as a sample solution; and when TA1537 was used as a test strain, a solution of 9AA (compound concentration: 800 μg/mL) in DMSO was prepared and used as a sample solution. […]"}, "[3]": {"system": "Salmonella typhimurium TA1535", "assay": "Reverse mutation test (Ames test), strain TA1535", "format": "cell-based", "method": "as §1, §2, §3"}, "[4]": {"system": "Escherichia coli WP2uvrA", "assay": "Reverse mutation test (Ames test), strain WP2uvrA", "format": "cell-based", "method": "as §1, §2, §3"}, "[5]": {"system": "Salmonella typhimurium TA98", "assay": "Reverse mutation test (Ames test), strain TA98", "format": "cell-based", "method": "as §1, §2, §3"}, "[6]": {"system": "Salmonella typhimurium TA1537", "assay": "Reverse mutation test (Ames test), strain TA1537", "format": "cell-based", "method": "as §1, §2, §3"}, "[7]": {"system": "Salmonella typhimurium TA98 and TA100, TA1535, TA1537 and Escherichia coli WP2uvrA", "assay": "Reverse mutation test (Ames test), overall judgment over all strains", "format": "cell-based", "method": "as §1, §2, §3"}, "[8]": {"details": "reported in WO03/106439; cited from earlier work"}, "[9]": {"details": "[125I]-labeled compounds; cited from earlier work"}, "[10]": {"details": "rats, [11C]-labeled; cited from earlier work"}},
  "note": "Like-named read-outs stand apart in the source and are kept apart here.",
  "data": [
    {"smiles": "COc1cc(OCCO)ccc1-c1cn2cc([123I])ccc2n1", "values": [
      {"measurement": "Binding to intracerebral amyloid", "setting": "[1]", "result": "property of binding to intracerebral amyloid"}
    ]},
    {"smiles": "COc1ccc2nc(-c3ccc(OCCCF)c(I)c3)cn2c1", "note": "[Compound 5, 2-[4′-(3″-fluoropropoxy)-3′-iodophenyl]-6-methoxyimidazo[1,2-a]pyridine]", "values": [
      {"measurement": "Mutagenicity, TA100", "setting": "[2]; with addition of S9mix", "result": "Negative"},
      {"measurement": "Mutagenicity, TA100", "setting": "[2]; without addition of S9mix", "result": "Negative"},
      {"measurement": "Mutagenicity, TA1535", "setting": "[3]; with addition of S9mix", "result": "Negative"},
      {"measurement": "Mutagenicity, TA1535", "setting": "[3]; without addition of S9mix", "result": "Negative"},
      {"measurement": "Mutagenicity, WP2uvrA", "setting": "[4]; with addition of S9mix", "result": "Negative"},
      {"measurement": "Mutagenicity, WP2uvrA", "setting": "[4]; without addition of S9mix", "result": "Negative"},
      {"measurement": "Mutagenicity, TA98", "setting": "[5]; with addition of S9mix", "result": "Negative"},
      {"measurement": "Mutagenicity, TA98", "setting": "[5]; without addition of S9mix", "result": "Negative"},
      {"measurement": "Mutagenicity, TA1537", "setting": "[6]; with addition of S9mix", "result": "Negative"},
      {"measurement": "Mutagenicity, TA1537", "setting": "[6]; without addition of S9mix", "result": "Negative"},
      {"measurement": "Judgment in the Ames test (mutagenicity)", "setting": "[7]; all strains, with and without S9mix", "result": "negative"},
      {"measurement": "Number of reverse mutation colonies relative to the negative control", "setting": "[7]; regardless of addition of S9mix and addition amount", "result": "less than two times"}
    ]},
    {"smiles": "CN(C)c1ccc(-c2cn3cc(I)ccc3n2)cc1", "note": "[IMPY, 6-iodo-2-[4′-(N,N-dimethylamino)phenyl]imidazo[1,2-a]pyridine]", "values": [
      {"measurement": "Result in reverse mutation test", "setting": "[8]", "result": "positive"},
      {"measurement": "Clearance from normal tissues", "setting": "[9]", "result": "rapid clearance from normal tissues"}
    ]},
    {"smiles": "CNc1ccc(/C=C/c2ccc(O)cc2)cc1", "note": "[SB-13, (E)-4-methylamino-4′-hydroxystilbene]", "values": [
      {"measurement": "Clearance from normal tissues", "setting": "[10]", "result": "shows a clearance from normal tissues"}
    ]}
  ]
}
